Assay results published in PMC6576746, “Rational discovery of dual-indication multi-target PDE/Kinase inhibitor for precision anti-cancer therapy using structural systems pharmacology” (PLoS Computational Biology, 2019).

Assays:
Assay in all cases: biochemical
Design in all cases: DiscoverX KinomeScan competition binding assay across human kinases; per cent of control at 10 and 100 uM
[1] = biological target: T1, ABL1(Q252H)-nonphosphorylated (Homo sapiens, UniProt P00519, Q252H); conditions: competition binding, % of control; read-out: Percent Control (100 uM Levosimendan)
T1 construct: nonphosphorylated
How it was run: (§1)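 Binding is expressed as %control, normalised between positive and negative control signals. The compound (levosimendan) was tested at 10 μM and 100 μM in the DiscoverX KinomeScan competition binding format against human kinases.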

ALK = ALK (Homo sapiens, UniProt Q9UM73); conditions: competition binding, % of control; read-out: Percent Control (100 uM Levosimendan)
How it was run: as §1

AXL = AXL (Homo sapiens, UniProt P30530); conditions: competition binding, % of control; read-out: Percent Control (100 uM Levosimendan)
How it was run: as §1

BMPR1A = BMPR1A (Homo sapiens, UniProt P36894); conditions: competition binding, % of control; read-out: Percent Control (100 uM Levosimendan)
How it was run: as §1

CDKL1 = CDKL1 (Homo sapiens, UniProt Q00532); conditions: competition binding, % of control
How it was run: as §1

ERK2 = biological target: T2, ERK2 (Homo sapiens, UniProt P28482); conditions: competition binding, % of control; read-out: Percent Control (100 uM Levosimendan)
T2 construct: gene MAPK1
How it was run: as §1

FGR = FGR (Homo sapiens, UniProt P09769); conditions: competition binding, % of control
How it was run: as §1

HASPIN = HASPIN (Homo sapiens, UniProt Q8TF76); conditions: competition binding, % of control; read-out: Percent Control (100 uM Levosimendan)
How it was run: as §1

IRAK1 = IRAK1 (Homo sapiens, UniProt P51617); conditions: competition binding, % of control; read-out: Percent Control (100 uM Levosimendan)
How it was run: as §1

MAK = MAK (Homo sapiens, UniProt P20794); conditions: competition binding, % of control; read-out: Percent Control (100 uM Levosimendan)
How it was run: as §1

MKNK1 = MKNK1 (Homo sapiens, UniProt Q9BUB5); conditions: competition binding, % of control; read-out: Percent Control (100 uM Levosimendan)
How it was run: as §1

NEK2 = NEK2 (Homo sapiens, UniProt P51955); conditions: competition binding, % of control; read-out: Percent Control (100 uM Levosimendan)
How it was run: as §1

NLK = NLK (Homo sapiens, UniProt Q9UBE8); conditions: competition binding, % of control; read-out: Percent Control (100 uM Levosimendan)
How it was run: as §1

PCTK1 = biological target: T3, PCTK1 (Homo sapiens, UniProt Q00536); conditions: competition binding, % of control; read-out: Percent Control (100 uM Levosimendan)
T3 construct: gene CDK16
How it was run: as §1

PIM1 = PIM1 (Homo sapiens, UniProt P11309); conditions: competition binding, % of control; read-out: Percent Control (100 uM Levosimendan)
How it was run: as §1

PRKCI = PRKCI (Homo sapiens, UniProt P41743); conditions: competition binding, % of control; read-out: Percent Control (100 uM Levosimendan)
How it was run: as §1

PYK2 = biological target: T4, PYK2 (Homo sapiens, UniProt Q14289); conditions: competition binding, % of control; read-out: Percent Control (100 uM Levosimendan)
T4 construct: gene PTK2B
How it was run: as §1

TAOK2 = TAOK2 (Homo sapiens, UniProt Q9UL54); conditions: competition binding, % of control; read-out: Percent Control (100 uM Levosimendan)
How it was run: as §1

TIE1 = TIE1 (Homo sapiens, UniProt P35590); conditions: competition binding, % of control; read-out: Percent Control (100 uM Levosimendan)
How it was run: as §1

[2] = read-out: Percent Control (10 uM Levosimendan)
[3] = read-out: Percent Control (100 uM Levosimendan)

CDKL1, sequence (Q00532 whole entry): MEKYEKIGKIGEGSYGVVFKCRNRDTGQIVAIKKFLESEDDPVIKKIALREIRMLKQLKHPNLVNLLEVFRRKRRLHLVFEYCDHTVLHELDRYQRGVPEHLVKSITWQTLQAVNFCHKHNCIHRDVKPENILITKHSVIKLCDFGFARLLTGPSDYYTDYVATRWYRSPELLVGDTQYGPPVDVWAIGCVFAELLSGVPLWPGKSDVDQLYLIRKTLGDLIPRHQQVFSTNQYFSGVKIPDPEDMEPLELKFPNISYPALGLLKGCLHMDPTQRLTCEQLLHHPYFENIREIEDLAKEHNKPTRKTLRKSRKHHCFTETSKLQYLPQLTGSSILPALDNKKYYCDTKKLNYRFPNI
FGR, sequence (P09769 whole entry): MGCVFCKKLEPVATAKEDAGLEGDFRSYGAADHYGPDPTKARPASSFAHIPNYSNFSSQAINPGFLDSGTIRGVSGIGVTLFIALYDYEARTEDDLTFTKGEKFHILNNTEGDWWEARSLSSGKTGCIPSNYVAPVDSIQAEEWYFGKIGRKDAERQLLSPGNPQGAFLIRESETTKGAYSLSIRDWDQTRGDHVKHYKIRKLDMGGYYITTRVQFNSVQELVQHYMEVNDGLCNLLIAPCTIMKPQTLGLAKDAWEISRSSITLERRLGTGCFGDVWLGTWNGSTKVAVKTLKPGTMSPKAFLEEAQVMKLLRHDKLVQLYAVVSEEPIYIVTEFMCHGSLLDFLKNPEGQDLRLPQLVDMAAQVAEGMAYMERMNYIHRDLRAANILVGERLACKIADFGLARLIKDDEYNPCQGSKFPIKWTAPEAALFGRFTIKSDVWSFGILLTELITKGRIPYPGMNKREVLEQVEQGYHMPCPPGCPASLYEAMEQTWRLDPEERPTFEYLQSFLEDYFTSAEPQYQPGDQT
NLK, sequence (Q9UBE8 whole entry): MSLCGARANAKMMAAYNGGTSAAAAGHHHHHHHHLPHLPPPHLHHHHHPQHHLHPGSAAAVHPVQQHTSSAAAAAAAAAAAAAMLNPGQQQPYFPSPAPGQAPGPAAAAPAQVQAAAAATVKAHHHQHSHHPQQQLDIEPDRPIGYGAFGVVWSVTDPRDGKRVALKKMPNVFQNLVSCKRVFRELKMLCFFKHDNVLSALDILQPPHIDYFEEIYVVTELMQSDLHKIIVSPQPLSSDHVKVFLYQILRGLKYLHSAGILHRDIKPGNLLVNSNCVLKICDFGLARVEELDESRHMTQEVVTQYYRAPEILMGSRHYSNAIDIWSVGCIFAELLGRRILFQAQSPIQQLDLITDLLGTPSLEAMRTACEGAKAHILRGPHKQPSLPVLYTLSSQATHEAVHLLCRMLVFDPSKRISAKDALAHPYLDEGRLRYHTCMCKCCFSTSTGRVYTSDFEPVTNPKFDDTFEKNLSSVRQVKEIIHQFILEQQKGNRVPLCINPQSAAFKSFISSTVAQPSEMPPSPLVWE
NEK2, sequence (P51955 whole entry): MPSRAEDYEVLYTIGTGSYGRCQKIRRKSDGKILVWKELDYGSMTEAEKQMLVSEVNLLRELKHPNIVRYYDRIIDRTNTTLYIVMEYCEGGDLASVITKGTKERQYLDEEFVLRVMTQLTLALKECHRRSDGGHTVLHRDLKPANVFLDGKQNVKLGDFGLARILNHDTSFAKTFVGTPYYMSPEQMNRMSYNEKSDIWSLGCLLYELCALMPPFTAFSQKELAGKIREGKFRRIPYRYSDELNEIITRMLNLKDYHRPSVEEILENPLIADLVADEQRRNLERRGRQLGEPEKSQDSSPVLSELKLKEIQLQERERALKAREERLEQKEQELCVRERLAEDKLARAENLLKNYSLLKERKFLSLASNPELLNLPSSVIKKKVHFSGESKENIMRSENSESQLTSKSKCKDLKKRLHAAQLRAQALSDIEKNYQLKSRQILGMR
MAK, sequence (P20794 whole entry): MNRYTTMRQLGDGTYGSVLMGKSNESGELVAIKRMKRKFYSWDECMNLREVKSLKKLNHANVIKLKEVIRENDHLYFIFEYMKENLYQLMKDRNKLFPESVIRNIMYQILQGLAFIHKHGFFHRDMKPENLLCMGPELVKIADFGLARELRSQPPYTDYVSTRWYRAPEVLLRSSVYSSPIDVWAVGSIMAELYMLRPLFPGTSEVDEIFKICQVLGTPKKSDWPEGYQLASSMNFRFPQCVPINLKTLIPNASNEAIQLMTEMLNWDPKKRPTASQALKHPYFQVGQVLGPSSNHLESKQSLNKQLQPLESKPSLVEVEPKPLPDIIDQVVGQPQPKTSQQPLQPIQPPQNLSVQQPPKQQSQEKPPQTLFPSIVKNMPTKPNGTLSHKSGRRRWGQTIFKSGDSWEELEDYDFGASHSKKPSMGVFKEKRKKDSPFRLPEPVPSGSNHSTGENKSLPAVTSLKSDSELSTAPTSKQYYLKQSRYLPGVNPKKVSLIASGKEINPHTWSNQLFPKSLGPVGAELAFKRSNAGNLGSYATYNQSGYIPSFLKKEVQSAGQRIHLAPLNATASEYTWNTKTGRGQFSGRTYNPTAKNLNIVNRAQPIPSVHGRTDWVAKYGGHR
T4 sequence (Q14289 whole entry): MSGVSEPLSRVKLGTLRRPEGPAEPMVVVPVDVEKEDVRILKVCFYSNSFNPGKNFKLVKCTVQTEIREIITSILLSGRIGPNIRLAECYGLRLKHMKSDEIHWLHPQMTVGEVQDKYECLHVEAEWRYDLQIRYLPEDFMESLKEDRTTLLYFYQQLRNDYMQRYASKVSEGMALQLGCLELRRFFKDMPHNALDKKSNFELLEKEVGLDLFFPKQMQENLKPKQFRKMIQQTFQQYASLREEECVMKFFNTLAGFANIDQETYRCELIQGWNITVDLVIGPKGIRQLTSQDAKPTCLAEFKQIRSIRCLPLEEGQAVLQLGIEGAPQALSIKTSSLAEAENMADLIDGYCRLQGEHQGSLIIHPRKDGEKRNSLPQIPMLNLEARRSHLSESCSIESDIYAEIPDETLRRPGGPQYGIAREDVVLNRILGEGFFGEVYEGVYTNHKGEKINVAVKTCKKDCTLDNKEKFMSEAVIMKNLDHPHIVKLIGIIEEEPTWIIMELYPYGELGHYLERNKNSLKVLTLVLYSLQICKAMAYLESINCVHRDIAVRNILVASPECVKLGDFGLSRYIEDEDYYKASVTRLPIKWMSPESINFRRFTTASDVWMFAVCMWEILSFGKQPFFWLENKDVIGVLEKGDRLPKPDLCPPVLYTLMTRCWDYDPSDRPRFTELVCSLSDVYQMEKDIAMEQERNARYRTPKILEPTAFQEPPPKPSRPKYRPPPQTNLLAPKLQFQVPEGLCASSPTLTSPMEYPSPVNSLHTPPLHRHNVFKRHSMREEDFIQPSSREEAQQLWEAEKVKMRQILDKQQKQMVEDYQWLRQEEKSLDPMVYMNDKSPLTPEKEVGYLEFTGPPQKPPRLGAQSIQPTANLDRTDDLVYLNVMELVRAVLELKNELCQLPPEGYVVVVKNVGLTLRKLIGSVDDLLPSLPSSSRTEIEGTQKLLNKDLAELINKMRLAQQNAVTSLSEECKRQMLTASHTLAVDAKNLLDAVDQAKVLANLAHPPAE
MKNK1, sequence (Q9BUB5 whole entry): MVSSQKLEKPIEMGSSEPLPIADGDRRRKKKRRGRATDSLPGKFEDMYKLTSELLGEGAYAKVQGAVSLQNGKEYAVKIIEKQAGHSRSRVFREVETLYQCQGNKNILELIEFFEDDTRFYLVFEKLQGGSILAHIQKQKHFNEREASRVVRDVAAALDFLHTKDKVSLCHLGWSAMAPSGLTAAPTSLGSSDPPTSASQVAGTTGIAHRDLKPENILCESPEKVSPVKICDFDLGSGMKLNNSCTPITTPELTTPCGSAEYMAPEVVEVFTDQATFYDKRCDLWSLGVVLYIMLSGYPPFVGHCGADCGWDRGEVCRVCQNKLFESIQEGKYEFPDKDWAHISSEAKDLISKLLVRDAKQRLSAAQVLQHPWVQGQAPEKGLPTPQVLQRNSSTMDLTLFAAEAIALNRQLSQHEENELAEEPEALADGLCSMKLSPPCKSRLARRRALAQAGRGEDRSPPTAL
HASPIN, sequence (Q8TF76 whole entry): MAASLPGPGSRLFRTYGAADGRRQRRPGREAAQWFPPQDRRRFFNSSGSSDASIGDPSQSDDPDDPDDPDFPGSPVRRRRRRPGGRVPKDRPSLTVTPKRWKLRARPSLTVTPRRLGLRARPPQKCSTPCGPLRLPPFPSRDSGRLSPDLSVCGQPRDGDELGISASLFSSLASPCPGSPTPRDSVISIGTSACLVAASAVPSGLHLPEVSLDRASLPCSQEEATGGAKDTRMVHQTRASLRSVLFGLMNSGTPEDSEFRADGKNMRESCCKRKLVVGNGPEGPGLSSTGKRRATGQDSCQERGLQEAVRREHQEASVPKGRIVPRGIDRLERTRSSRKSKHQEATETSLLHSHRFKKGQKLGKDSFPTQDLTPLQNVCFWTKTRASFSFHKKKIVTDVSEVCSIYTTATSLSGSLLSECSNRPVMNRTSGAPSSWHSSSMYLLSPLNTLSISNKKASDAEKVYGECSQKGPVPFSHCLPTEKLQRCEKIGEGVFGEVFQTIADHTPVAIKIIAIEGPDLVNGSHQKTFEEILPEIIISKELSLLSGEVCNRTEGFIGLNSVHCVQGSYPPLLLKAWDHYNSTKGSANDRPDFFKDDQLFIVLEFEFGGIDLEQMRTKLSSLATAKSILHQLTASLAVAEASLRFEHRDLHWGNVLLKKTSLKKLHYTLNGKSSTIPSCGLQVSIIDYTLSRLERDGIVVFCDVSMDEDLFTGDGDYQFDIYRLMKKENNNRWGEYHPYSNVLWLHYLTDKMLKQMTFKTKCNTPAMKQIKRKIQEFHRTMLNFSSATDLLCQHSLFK

remaining binding at 100 µM [1]: 61%
remaining binding at 100 µM (ALK): 76%
remaining binding at 100 µM (AXL): 83%
remaining binding at 100 µM (BMPR1A): 93%
remaining binding at 10 µM (CDKL1; [2]): 88%
remaining binding at 100 µM (CDKL1; [3]): 47%
remaining binding at 100 µM (ERK2): 100%
remaining binding at 10 µM (FGR; [2]): 100%
remaining binding at 100 µM (FGR; [3]): 49%
remaining binding at 100 µM (HASPIN): 69%
remaining binding at 100 µM (IRAK1): 61%
remaining binding at 100 µM (MAK): 100%
remaining binding at 100 µM (MKNK1): 65%
remaining binding at 100 µM (NEK2): 96%
remaining binding at 100 µM (NLK): 100%
remaining binding at 100 µM (PCTK1): 88%
remaining binding at 100 µM (PIM1): 64%
remaining binding at 100 µM (PRKCI): 58%
remaining binding at 100 µM (PYK2): 93%
remaining binding at 100 µM (TAOK2): 89%
remaining binding at 100 µM (TIE1): 100%
SMILES: C[C@@H]1CC(=O)NN=C1c1ccc(NN=C(C#N)C#N)cc1 [levosimendan]
